Calls of active or inactive are those of the source. The calls are words filed in the database; no cut-off is given here.
How the values were obtained:
[1] = target: Tyrosine-protein kinase JAK3 (Homo sapiens, UniProt P52333); assay: Binding affinity to wild-type human partial length JAK3 JH1 catalytic domain (I781 to S1124 residues) expressed in mammalian expression system by Kinomescan method relative to control
[2] = target: T1, BDNF/NT-3 growth factors receptor (Homo sapiens, UniProt Q16620); settings: BaF3, dose 0.3-200 nM, time 6.0 hrs
T1 sequence (Q16620 32-822 limits assumed): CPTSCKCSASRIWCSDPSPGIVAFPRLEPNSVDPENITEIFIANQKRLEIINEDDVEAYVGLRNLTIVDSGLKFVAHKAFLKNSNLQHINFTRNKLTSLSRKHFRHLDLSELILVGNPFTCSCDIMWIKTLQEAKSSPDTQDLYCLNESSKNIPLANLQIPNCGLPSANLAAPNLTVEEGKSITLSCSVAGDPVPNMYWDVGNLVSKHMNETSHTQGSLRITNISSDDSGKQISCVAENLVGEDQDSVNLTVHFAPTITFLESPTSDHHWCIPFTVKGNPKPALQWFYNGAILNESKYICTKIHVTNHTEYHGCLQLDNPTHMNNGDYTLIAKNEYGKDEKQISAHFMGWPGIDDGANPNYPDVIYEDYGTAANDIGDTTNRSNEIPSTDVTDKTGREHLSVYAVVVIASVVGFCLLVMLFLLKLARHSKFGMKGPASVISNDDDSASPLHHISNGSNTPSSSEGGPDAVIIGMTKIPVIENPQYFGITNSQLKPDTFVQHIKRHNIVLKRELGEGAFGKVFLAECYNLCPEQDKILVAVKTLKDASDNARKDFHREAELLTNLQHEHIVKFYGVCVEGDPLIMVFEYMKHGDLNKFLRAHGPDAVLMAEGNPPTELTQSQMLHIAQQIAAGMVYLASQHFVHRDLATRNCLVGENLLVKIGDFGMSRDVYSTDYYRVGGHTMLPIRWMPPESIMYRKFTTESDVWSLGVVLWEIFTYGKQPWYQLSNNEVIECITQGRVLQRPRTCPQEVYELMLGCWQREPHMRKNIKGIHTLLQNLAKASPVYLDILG

[3] = tested on: Proto-oncogene tyrosine-protein kinase receptor Ret (Homo sapiens), P07949 [M918T]; assay: Binding affinity to RET M918T mutant (unknown origin)
Sequence of Proto-oncogene tyrosine-protein kinase receptor Ret (Homo sapiens), P07949 [M918T] (P07949 whole entry M918T): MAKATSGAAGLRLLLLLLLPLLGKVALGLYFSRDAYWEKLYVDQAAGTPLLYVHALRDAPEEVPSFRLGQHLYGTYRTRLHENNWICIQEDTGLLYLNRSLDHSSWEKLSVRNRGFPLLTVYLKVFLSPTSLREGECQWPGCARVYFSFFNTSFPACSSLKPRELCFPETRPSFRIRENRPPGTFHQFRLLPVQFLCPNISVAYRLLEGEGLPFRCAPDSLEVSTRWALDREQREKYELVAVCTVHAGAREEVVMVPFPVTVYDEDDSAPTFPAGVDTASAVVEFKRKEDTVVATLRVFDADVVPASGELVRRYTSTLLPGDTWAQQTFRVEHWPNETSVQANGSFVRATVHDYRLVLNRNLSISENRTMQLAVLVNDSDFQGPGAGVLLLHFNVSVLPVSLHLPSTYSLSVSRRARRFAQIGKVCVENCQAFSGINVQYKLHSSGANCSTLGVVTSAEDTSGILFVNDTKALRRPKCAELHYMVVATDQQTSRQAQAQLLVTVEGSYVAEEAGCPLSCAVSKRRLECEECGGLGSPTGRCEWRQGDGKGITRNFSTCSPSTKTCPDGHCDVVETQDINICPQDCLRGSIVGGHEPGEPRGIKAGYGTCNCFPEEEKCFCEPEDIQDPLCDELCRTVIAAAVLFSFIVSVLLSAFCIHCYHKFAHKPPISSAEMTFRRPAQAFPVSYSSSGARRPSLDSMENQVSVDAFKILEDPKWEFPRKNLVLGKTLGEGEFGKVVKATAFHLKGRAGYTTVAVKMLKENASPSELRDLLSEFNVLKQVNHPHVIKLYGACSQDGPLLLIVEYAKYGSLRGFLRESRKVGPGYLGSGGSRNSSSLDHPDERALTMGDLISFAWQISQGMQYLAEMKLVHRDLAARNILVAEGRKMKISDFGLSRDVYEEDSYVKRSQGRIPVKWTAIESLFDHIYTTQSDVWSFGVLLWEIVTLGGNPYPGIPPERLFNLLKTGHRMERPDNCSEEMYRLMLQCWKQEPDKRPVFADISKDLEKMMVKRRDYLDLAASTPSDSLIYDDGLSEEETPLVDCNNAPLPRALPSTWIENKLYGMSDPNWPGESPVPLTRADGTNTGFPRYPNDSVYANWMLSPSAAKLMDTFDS

[4] = target: T1, BDNF/NT-3 growth factors receptor; settings: BaF3, dose 0.3-200 nM, time 6.0 hrs; remark: listed apart in the source
[5] = target: T2, High affinity nerve growth factor receptor (Homo sapiens, UniProt P04629); assay: Inhibition of TrkA (unknown origin) in mouse BaF3 cells transfected with wild type CD74-NTK1 assessed as inhibition of ERK expression measured after 6 hrs by Western blot assay; assay type: cell-based; settings: dose 0.3-200 nM
T2 sequence (P04629 33-796 limits assumed): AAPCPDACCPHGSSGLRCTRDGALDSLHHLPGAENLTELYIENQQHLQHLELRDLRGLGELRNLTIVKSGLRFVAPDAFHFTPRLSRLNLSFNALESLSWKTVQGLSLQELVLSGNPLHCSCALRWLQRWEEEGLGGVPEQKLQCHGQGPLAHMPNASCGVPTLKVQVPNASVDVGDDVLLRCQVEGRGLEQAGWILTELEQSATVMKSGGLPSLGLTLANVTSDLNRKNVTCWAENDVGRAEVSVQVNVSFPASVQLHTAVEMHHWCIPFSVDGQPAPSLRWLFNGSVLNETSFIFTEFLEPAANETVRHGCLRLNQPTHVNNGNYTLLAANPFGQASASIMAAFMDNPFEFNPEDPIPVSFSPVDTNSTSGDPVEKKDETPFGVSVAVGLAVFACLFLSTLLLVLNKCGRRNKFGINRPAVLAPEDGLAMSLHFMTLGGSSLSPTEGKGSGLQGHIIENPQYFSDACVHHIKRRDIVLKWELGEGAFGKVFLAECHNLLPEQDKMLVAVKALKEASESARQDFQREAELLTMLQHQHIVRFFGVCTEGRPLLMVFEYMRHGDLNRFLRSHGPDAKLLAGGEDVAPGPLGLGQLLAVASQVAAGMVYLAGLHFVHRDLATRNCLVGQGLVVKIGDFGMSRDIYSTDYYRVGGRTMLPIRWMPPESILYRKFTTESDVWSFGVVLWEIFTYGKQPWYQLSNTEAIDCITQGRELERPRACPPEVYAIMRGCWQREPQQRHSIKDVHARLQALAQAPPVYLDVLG

BaF3 = assay: Antiproliferative activity against mouse BaF3 cells transfected with wild type ETV6-NTRK3 (unknown origin) harbouring G623R mutation assessed as cell viability measured after 72 hrs by Micro plate reader method; assay type: functional, cell-based; settings: BaF3, 72 h
[6] = target: T1, BDNF/NT-3 growth factors receptor; settings: BaF3, dose 0.3-200 nM, time 6.0 hrs; remark: listed apart in the source
[7] = target: T1, BDNF/NT-3 growth factors receptor; settings: BaF3, dose 0.3-200 nM, time 6.0 hrs; remark: listed apart in the source
[8] = Half life in Sprague-Dawley rat at 2 mg/kg, iv measured after 24 hrs by LC-MS/MS analysis; assay type: ADME, organism-based; settings: in vivo
[9] = Oral bioavailability in Sprague-Dawley rat at 10 mg/kg measured after 24 hrs by LC-MS/MS analysis; assay type: ADME, organism-based; settings: in vivo
[10] = target: ALK tyrosine kinase receptor (Homo sapiens, UniProt Q9UM73); assay: Binding affinity to wild-type human partial length ALK (I1088 to E1409 residues) expressed in mammalian expression system by Kinomescan method relative to control
Sequence of ALK tyrosine kinase receptor (Q9UM73 whole entry, the tested form may be a part): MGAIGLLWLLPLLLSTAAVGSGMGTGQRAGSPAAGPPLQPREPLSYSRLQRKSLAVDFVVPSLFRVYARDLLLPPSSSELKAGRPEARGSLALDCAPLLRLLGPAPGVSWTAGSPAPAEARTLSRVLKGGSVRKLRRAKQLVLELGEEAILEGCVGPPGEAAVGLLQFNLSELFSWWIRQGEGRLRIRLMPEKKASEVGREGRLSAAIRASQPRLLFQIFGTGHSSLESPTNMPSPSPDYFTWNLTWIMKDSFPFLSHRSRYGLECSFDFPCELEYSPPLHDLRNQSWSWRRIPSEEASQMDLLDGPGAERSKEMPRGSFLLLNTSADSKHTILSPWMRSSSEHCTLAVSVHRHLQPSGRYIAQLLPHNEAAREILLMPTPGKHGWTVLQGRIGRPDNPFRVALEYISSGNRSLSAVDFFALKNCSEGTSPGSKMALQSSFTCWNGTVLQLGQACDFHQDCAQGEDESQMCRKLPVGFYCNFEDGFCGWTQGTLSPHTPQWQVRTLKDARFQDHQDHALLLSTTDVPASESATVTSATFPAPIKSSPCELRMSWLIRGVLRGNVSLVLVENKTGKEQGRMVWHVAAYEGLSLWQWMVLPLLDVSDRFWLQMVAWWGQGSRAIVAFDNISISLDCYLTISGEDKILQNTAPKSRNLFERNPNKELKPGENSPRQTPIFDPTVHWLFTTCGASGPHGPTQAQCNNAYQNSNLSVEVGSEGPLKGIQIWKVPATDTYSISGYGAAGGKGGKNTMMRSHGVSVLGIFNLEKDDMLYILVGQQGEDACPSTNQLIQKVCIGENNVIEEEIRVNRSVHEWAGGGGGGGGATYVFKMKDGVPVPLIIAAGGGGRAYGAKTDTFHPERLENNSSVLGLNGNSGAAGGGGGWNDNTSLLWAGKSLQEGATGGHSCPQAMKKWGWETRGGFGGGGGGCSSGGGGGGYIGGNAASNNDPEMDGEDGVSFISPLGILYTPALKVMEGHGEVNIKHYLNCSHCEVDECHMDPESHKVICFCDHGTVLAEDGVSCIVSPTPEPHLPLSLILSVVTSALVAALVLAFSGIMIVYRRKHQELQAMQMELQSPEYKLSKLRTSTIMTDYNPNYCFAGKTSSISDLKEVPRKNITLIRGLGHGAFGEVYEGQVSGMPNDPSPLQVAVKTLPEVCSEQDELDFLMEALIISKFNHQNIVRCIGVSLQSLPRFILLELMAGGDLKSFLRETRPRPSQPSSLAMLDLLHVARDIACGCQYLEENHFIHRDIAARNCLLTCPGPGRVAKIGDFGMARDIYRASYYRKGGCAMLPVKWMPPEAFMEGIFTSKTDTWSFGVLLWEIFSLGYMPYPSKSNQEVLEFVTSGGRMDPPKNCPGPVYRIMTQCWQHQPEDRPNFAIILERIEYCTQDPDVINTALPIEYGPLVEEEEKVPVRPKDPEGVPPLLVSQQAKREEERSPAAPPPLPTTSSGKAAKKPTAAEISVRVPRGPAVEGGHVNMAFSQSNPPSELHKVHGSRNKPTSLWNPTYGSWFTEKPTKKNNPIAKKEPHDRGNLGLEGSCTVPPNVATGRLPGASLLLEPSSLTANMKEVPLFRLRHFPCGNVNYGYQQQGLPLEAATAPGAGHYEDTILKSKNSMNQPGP

[11] = target: T2, High affinity nerve growth factor receptor; assay: Inhibition of TrkA (unknown origin) in mouse BaF3 cells transfected with wild type CD74-NTK1 assessed as inhibition of PLCgamma 1 expression measured after 6 hrs by Western blot assay; assay type: cell-based
[12] = tested on: Receptor-type tyrosine-protein kinase FLT3 (Homo sapiens), P36888 [K663Q]; assay: Binding affinity to FLT3 K663Q mutant (unknown origin)
[13] = target: Fibroblast growth factor receptor 1 (Homo sapiens, UniProt P11362); assay: Binding affinity to wild-type human partial length FGFR1 (P357 to V669 residues) expressed in bacterial expression system by Kinomescan method relative to control
Sequence of Fibroblast growth factor receptor 1 (P11362 whole entry, the tested form may be a part): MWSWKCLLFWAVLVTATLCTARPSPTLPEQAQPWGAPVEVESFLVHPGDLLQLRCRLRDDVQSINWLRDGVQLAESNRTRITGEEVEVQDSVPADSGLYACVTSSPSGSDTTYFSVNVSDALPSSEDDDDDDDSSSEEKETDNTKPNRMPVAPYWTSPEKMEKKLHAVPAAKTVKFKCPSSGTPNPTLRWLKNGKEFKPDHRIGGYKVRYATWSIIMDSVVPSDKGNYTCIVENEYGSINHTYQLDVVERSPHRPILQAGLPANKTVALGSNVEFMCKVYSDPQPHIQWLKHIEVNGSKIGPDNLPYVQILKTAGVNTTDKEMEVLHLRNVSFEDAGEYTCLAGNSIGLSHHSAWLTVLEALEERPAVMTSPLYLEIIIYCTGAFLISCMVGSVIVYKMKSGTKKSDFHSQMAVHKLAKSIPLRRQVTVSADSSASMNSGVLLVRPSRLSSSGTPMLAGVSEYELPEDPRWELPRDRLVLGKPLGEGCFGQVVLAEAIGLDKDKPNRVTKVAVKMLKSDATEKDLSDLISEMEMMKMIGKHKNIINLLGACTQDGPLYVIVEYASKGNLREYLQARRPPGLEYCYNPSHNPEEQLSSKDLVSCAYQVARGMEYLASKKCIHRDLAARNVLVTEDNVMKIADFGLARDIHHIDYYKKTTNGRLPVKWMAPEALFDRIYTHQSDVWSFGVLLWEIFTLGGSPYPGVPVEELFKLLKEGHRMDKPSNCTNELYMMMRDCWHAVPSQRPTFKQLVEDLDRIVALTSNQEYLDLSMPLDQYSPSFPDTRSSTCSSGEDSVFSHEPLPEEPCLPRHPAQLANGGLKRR

[14] = target: Proto-oncogene tyrosine-protein kinase ROS (Homo sapiens, UniProt P08922); assay: Binding affinity to wild-type human partial length ROS1 (A1921 to N2240 residues) expressed in bacterial expression system by Kinomescan method relative to control

Kd [1]: 170 nM | inhibition [2]: Active | inhibition [3]: Active | inhibition [4]: Active | inhibition [5]: Active | IC50 (BaF3): 243 nM | inhibition [6]: Active | inhibition [7]: Active | half-life [8]: 1.39 h | bioavailability [9]: 8.79% | Kd [10]: 150 nM | inhibition [11]: Active | inhibition [12]: Active | Kd [13]: 76 nM | Kd [14]: 13 nM
SMILES: C[C@@H](Nc1ccc2[nH]nc(/C=C/c3ccccn3)c2c1)c1cc(F)cc(F)c1
